Assay in all cases: biochemical
Holding throughout (type): binding

Assay [1] has as its target T1, panel of 442 kinases (Homo sapiens, UniProt P09769).
T1 construct: purchased Ambit Biosciences (scanMAXX KINOMEscan)
The following applies: FGR; for remaining activity at 1 µM: read-out: % of control at 1 µM.

The target in assay [2] is T2, panel of 442 kinases (Homo sapiens, UniProt P45984).
T2 construct: purchased Ambit Biosciences (scanMAXX KINOMEscan)
As to conditions: kinase JNK2; for remaining activity at 1 µM: read-out: % of control at 1 µM.

The target in assay [3] is T3, panel of 442 kinases (Homo sapiens, UniProt Q04759).
T3 construct: purchased Ambit Biosciences (scanMAXX KINOMEscan)
T3 sequence (Q04759 whole entry): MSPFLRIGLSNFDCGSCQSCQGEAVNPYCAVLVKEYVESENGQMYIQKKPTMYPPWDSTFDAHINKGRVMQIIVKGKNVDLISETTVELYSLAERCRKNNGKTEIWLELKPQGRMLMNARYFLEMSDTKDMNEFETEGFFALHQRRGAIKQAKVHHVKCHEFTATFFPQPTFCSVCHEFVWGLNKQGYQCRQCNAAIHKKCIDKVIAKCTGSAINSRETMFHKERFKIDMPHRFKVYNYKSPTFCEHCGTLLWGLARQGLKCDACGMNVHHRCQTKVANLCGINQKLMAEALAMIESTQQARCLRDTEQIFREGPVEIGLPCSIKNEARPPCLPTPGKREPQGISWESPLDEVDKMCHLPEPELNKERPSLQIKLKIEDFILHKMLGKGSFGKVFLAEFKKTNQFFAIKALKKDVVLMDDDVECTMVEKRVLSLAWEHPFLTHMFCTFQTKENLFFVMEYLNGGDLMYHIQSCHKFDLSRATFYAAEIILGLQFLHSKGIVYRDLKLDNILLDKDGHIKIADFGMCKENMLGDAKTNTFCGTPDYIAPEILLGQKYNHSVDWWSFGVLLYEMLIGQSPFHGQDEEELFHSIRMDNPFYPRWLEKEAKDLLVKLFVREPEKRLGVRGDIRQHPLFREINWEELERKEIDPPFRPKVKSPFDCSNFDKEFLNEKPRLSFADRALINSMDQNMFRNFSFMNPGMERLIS
As to conditions: kinase PRKCQ; for remaining activity at 1 µM: read-out: PRKCQ (% of control at 1 µM).

For assay [4], the target named is T4, panel of 442 kinases (Homo sapiens, UniProt Q04771).
T4 construct: purchased Ambit Biosciences (scanMAXX KINOMEscan)
T4 sequence (Q04771 21-509): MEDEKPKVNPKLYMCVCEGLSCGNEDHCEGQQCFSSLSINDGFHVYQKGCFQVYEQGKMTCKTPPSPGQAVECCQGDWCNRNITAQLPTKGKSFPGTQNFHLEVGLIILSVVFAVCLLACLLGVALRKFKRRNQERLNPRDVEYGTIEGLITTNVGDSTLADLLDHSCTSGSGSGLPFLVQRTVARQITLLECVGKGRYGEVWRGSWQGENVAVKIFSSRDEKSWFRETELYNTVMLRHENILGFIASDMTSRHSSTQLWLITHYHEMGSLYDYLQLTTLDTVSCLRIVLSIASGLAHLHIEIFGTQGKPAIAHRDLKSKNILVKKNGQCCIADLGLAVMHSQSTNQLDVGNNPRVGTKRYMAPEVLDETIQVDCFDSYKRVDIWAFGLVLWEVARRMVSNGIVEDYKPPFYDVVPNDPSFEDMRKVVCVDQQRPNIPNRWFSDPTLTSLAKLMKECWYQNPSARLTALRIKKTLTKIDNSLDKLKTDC
The following applies: ACVR1; for remaining activity at 1 µM: read-out: % of control at 1 µM.

Assay [5] addresses T5, panel of 442 kinases (Homo sapiens, UniProt Q8IWQ3).
T5 construct: purchased Ambit Biosciences (scanMAXX KINOMEscan)
T5 sequence (Q8IWQ3 1-736): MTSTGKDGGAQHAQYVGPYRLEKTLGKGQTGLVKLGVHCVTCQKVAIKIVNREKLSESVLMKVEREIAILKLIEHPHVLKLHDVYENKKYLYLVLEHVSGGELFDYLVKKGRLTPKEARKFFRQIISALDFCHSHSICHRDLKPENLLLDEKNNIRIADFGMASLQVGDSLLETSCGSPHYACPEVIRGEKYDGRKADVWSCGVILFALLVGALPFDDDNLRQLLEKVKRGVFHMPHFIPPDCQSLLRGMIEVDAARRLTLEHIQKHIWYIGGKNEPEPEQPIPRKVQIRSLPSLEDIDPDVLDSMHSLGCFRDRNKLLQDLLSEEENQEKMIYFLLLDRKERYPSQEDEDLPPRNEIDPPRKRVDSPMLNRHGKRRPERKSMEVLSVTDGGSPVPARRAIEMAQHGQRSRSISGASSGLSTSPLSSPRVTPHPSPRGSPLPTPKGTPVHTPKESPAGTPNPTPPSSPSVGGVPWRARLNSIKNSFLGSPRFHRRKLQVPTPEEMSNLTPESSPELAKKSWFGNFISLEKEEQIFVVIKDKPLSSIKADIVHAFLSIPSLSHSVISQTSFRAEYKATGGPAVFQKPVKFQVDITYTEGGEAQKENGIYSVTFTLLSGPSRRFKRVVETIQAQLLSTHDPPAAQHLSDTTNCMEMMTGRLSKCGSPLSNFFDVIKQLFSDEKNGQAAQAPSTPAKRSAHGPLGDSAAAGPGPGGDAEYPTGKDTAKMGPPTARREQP
As to conditions: BRSK2; for remaining activity at 1 µM: read-out: % of control at 1 µM.

The target in assay [6] is T6, panel of 442 kinases (Homo sapiens, UniProt Q96D53).
T6 construct: purchased Ambit Biosciences (scanMAXX KINOMEscan)
T6 sequence (Q96D53 1-544): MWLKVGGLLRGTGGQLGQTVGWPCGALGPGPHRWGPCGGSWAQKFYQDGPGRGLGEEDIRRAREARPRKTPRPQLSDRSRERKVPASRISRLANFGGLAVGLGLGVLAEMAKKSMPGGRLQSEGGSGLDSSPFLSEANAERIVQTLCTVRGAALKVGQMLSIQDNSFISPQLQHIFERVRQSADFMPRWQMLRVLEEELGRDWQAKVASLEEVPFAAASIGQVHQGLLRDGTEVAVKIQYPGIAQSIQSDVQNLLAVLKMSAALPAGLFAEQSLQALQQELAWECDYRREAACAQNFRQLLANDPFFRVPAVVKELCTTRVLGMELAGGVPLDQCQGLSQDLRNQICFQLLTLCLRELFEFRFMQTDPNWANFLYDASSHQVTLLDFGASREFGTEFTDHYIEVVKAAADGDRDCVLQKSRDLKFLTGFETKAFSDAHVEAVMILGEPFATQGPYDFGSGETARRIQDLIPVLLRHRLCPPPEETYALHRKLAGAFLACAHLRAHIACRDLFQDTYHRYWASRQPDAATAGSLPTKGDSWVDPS
As to conditions: ADCK4; for remaining activity at 1 µM: read-out: % of control at 1 µM.

Assay [7] concerns the target T7, panel of 442 kinases (Homo sapiens, UniProt Q9H093).
T7 construct: purchased Ambit Biosciences (scanMAXX KINOMEscan)
T7 sequence (Q9H093 1-628): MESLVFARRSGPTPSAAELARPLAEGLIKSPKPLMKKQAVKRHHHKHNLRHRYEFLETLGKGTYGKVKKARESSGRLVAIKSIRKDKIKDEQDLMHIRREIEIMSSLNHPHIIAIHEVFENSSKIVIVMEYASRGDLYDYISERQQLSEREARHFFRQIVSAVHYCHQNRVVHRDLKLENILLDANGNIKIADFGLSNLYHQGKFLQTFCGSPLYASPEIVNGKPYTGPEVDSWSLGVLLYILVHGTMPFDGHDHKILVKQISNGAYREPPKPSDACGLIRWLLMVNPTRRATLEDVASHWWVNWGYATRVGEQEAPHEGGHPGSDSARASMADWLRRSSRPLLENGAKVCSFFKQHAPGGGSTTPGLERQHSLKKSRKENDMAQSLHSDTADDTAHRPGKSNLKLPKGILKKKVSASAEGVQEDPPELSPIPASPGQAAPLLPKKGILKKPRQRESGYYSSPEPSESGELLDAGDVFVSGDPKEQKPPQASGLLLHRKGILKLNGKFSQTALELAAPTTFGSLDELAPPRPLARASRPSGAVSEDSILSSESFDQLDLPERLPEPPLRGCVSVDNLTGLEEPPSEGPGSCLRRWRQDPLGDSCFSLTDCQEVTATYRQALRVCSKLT
The following applies: kinase SNARK; for remaining activity at 1 µM: read-out: SNARK (% of control at 1 µM).

In assay [8] the target is T8, panel of 442 kinases (Homo sapiens, UniProt Q9UIK4).
T8 construct: purchased Ambit Biosciences (scanMAXX KINOMEscan)
T8 sequence (Q9UIK4 whole entry): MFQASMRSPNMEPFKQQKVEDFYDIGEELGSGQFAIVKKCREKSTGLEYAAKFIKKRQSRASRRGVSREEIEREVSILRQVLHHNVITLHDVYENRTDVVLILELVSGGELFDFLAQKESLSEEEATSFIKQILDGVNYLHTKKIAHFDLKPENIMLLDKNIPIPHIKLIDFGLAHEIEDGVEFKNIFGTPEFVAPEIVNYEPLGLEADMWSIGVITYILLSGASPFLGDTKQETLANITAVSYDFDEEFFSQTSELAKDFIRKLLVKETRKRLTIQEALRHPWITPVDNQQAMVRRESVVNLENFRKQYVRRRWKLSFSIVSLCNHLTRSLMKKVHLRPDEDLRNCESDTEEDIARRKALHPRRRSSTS
The following applies: DAPK2; for remaining activity at 1 µM: read-out: % of control at 1 µM.

Where [9] appears, read: 10 µM, read-out: % of control at 10 µM.

T1 sequence (P09769 whole entry): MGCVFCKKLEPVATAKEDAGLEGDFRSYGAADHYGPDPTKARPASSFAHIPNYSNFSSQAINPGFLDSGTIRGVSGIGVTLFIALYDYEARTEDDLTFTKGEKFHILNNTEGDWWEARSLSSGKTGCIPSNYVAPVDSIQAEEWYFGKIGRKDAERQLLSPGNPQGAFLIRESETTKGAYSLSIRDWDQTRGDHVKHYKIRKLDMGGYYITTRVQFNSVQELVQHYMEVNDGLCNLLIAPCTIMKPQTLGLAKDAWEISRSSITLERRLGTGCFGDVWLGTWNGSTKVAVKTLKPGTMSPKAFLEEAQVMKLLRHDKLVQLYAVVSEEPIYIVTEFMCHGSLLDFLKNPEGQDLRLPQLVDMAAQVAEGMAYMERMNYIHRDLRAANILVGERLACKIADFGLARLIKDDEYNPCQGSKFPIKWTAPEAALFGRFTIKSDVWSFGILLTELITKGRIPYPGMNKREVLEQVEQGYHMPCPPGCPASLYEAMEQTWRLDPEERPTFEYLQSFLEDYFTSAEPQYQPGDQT
T2 sequence (P45984 whole entry): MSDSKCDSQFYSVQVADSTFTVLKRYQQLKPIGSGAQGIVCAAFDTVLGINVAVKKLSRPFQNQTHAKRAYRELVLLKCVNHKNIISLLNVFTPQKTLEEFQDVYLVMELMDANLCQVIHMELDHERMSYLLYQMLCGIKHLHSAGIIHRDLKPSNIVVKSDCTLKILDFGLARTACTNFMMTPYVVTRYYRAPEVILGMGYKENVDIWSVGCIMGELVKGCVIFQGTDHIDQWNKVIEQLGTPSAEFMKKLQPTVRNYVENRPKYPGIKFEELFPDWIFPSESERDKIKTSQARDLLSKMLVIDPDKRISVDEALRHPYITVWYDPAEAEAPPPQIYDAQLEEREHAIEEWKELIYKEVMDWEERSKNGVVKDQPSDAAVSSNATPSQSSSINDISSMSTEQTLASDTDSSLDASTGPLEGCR

On to `COc1ncc(-c2ccc3nccc(-c4ccnnc4)c3c2)cc1NS(=O)(=O)c1ccc(F)cc1F` [Omipalisib], for which the remaining activity at 1 µM came to 84% in assay [1]; 100% in assay [2]; 100% in assay [3]; 100% in assay [4]; 95% in assay [5]; 75% in assay [6]. Moreover, the remaining activity at 1 µM in assay [7] and in assay [8] was 100% in each case.

Consider `Cn1c(=O)n(-c2ccc(C(C)(C)C#N)cc2)c2c3cc(-c4cnc5ccccc5c4)ccc3ncc21` [Dactolisib, 2-methyl-2-[4-(3-methyl-2-oxo-8-quinolin-3-yl-2,3-dihydroimidazo[4,5-c]quinolin-1-yl)-phenyl] propionitrile], for which the remaining activity at 1 µM in assay [1] stood at 81%; in assay [2], 100%; in assay [3], 85%; in assay [4], 65%; in assay [5], 91%; in assay [7], 34%. Moreover, in assay [8], the remaining activity at 1 µM was found to be 97%.

Regarding `Nc1cc(C(F)(F)F)c(-c2cc(N3CCOCC3)nc(N3CCOCC3)n2)cn1` [Buparlisib], the remaining activity at 1 µM in assay [1] worked out at 100%; in assay [2], 100%; in assay [3], 91%; in assay [4], 100%; in assay [5], 100%; in assay [6], 100%. Besides, the remaining activity at 1 µM in assay [7] and in assay [8] was 100% each time. Besides, the remaining activity at 10 µM in assay [1] (setting [9]) was 100%; in assay [2] (setting [9]), 100%; in assay [3] (10 µM, read-out: PRKCQ (% of control at 10 µM)), 100%; in assay [4] (setting [9]) it was 100%; in assay [5] (setting [9]), 100%; in assay [6] (setting [9]), 100%. Besides, the remaining activity at 10 µM is 100% in assay [7] (10 µM, read-out: SNARK (% of control at 10 µM)) and 100% in assay [8] (setting [9]).

As for `FC(F)c1nc2ccccc2n1-c1nc(N2CCOCC2)nc(N2CCOCC2)n1` [ZSTK474, 2-(difluoromethyl)-1-[4,6-di(4-morpholinyl)-1,3,5-triazin-2-yl]-1H-benzimidazole], the remaining activity at 1 µM in assay [1] was found to be 87%; in assay [2], 100%; in assay [3] it was 98%; in assay [4], 76%; in assay [5] it was 100%; in assay [6], 74%. In addition, the remaining activity at 1 µM in assay [7] and in assay [8] was 100% each time.

(Values after article PMC5564600 (Oncotarget, 2017).)
